Measurements published in patent US20180344715A1, “WNT/BETA-CATENIN SIGNAL TRANSDUCTION INHIBITORS AND THEIR USE IN TREATMENT OR PREVENTION OF DISEASES AND CONDITIONS LINKED WITH SAID TRANSDUCTION” (BERGEN TEKNOLOGIOVERFORING AS, priority 2015, published 2018).

How the values were obtained:
Wnt/β-catenin signaling = assay: TOPFlash reporter assay in 293FT cells; assay type: cell-based, human; details: 1 μM 6BIO together with drug at indicated concentrations, 24 hours
Experimental: TOPFlash assay was performed in 96-well plate. For each well, 293T cells were transfected with 0.22 μg TOPFlash (or FOPFlash with mutant TCF binding sites) and 0.02 μg pRL-SV40P using lipofectamine 3000. For co-transfection with other plasmids, 0.1 μg additional DNA was used. […] The luciferase activity was measured 24 hours later by using Dual-Glo® Luciferase Assay System (Promega, E2940) according to the recommended protocol. The TOPFlash or FOPFlash activity was normalized to Renilla luciferase signals.
TOPFlash assay was performed as described above. Briefly, for each well of a 96-well plate 293FT cells were transfected with 0.22 μg TOPFlash (or FOPFlash with mutant TCF binding sites) and 0.02 μg pRL-SV40P using lipofectamine 3000. For co-transfection with other plasmids, 0.1 μg additional DNA was used. Four hours after transfection, 293FT cells were treated with DMSO, 1 μM 6B10 and 1 μM 6B10 together with pazopanib, orlistat and topotecan at varying concentrations for 24 hours. The luciferase activity was then measured using Dual-Glo® Luciferase Assay System (Promega, E2940) according to the recommended protocol. The TOPFlash or FOPFlash activity was normalized to Renilla luciferase signals.

GFP-SHPRH = target: T1, GFP-SHPRH (Homo sapiens, UniProt Q149N8); assay: MST ligand-binding assay, GFP-SHPRH in SW480 cell lysates; details: 25° C., 4 replicates
T1 construct: expressed in transfected cells; host or cells: SW480
Experimental: Ten million SW480 cells overexpressing GFP-tagged SHPRH or free GFP were lysed in 1 mL radioimmunoprecipitation assay (RIPA) buffer. Cell lysates were diluted in buffer A [50 mM Hepes buffer (pH 7.5), 5 mM DTT, 10 mM CaCl2), 50 mM NaCl, and 0.05% Tween-20] to a final concentration at which the fluorescent signals of the GFP proteins were similar and well above the detection limit of the Monolith NT.115 instrument (NanoTemper Technologies GmbH). Ten microliters of each receptor were mixed with 10 μL of the ligand at various concentrations from 100 μM to 3.05 nM. Specifically, the ligand (4 mM in 100% DMSO) was diluted 1:20 to a final concentration of 200 μM in buffer A (giving 5% DMSO). Ten microliters of the 200 μM ligand solution was further serially diluted 1:1 in 10 μL of buffer A supplemented with 5% DMSO to make a 16-sample dilution series down to 6.1 nM. Ten microliters of the cell lysate were added to 10 μL of each ligand solution. […] The fluorescence signal during the thermophoresis was monitored for 30 s, and the change in fluorescence was analyzed as thermophoresis with T-jump. The Kd was calculated by fitting a standard binding curve to the average of four independent dilution series.

SW480 cells = assay: EdU label release assay, SW480; assay type: cell-based; details: SW480, 5 μM, 3 days; never found in control cells
Experimental: (§1) Two days later, cells were seeded singly onto 12 mm glass coverslips in 24-well plates. One day after, EdU was detected using the Click-iT® Plus EdU Alexa Fluor 488 Imaging Kit (Life Technologies, C10637) according to the manufacturer's protocol. For double staining of EdU and other proteins, the EdU stained cells were further used for immunofluorescence staining as described above. Intensity of EdU staining in paired cells were quantified by Photoshop CS6 software, unequal EdU distribution was considered when paired cells had intensity ratio higher than 2.

RKO cells = assay: EdU label release assay, RKO; assay type: cell-based; details: 5 μM, 3 days
Experimental: as §1

MED23 = target: T2, MED23 (Homo sapiens, UniProt Q9ULK4); assay: Cellular thermal shift assay (CETSA), MED23; assay type: binding; details: SW480, 10 μM
T2 construct: endogenous in cells; host or cells: SW480
T2 sequence (Q9ULK4 1-1368): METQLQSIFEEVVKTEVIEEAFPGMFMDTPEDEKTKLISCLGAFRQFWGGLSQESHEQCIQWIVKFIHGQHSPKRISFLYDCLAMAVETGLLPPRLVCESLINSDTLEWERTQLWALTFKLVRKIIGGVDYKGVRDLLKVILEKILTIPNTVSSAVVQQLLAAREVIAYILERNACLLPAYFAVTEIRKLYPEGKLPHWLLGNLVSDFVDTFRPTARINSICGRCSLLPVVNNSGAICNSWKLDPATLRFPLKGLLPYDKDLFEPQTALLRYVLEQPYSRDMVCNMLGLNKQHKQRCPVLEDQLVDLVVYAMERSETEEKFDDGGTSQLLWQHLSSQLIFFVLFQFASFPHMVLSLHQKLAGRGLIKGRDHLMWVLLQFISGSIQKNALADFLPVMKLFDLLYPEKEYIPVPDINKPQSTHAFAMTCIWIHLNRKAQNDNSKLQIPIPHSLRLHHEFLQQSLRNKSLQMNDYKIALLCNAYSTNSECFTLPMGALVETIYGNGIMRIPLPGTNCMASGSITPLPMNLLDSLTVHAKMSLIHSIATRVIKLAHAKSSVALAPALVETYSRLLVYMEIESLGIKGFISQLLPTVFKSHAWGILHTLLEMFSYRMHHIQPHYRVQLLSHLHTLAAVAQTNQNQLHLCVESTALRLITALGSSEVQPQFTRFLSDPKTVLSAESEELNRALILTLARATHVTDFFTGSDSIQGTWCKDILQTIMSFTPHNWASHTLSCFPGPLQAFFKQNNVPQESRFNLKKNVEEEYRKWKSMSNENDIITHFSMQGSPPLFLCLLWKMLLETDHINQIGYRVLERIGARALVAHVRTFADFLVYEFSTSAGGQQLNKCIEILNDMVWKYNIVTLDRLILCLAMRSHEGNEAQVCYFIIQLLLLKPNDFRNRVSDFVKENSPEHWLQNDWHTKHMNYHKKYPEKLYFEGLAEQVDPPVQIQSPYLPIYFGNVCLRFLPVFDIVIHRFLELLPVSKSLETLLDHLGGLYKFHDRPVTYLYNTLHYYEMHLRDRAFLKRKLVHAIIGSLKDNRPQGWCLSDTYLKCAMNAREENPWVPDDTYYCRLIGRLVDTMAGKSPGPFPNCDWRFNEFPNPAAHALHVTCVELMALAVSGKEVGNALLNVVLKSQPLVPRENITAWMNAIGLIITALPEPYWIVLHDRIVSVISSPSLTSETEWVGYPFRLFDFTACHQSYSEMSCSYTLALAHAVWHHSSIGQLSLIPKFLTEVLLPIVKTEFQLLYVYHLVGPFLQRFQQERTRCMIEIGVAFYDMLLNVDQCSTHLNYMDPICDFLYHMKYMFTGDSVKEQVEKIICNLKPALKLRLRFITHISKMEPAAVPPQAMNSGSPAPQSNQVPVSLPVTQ
Experimental: CETSA in intact cells was performed according to the protocol previously described (Martinez Molina, D. et al., 2013, Science 341, 84-87). Briefly, SW480 cells were seeded equally in 2 T75 flasks and allowed to reach 80% confluence one day after. […] After trypsinization and PBS wash, cells were resuspended in 450 μl PBS containing freshly added protease inhibitors and equally divided between 7 tubes. Cells in each tube were heated at indicated temperatures for 3 minutes and kept at room temperature for 3 minutes. Heated cells were lysed by 3 cycles of freezing in liquid nitrogen (1 minute) and thawing in room temperature water (1 minute). The cell lysates were centrifuged at 20,000 g for 20 minutes at 4° C. The soluble fractions were isolated for Western blotting analysis.

T1 sequence (Q149N8 whole entry): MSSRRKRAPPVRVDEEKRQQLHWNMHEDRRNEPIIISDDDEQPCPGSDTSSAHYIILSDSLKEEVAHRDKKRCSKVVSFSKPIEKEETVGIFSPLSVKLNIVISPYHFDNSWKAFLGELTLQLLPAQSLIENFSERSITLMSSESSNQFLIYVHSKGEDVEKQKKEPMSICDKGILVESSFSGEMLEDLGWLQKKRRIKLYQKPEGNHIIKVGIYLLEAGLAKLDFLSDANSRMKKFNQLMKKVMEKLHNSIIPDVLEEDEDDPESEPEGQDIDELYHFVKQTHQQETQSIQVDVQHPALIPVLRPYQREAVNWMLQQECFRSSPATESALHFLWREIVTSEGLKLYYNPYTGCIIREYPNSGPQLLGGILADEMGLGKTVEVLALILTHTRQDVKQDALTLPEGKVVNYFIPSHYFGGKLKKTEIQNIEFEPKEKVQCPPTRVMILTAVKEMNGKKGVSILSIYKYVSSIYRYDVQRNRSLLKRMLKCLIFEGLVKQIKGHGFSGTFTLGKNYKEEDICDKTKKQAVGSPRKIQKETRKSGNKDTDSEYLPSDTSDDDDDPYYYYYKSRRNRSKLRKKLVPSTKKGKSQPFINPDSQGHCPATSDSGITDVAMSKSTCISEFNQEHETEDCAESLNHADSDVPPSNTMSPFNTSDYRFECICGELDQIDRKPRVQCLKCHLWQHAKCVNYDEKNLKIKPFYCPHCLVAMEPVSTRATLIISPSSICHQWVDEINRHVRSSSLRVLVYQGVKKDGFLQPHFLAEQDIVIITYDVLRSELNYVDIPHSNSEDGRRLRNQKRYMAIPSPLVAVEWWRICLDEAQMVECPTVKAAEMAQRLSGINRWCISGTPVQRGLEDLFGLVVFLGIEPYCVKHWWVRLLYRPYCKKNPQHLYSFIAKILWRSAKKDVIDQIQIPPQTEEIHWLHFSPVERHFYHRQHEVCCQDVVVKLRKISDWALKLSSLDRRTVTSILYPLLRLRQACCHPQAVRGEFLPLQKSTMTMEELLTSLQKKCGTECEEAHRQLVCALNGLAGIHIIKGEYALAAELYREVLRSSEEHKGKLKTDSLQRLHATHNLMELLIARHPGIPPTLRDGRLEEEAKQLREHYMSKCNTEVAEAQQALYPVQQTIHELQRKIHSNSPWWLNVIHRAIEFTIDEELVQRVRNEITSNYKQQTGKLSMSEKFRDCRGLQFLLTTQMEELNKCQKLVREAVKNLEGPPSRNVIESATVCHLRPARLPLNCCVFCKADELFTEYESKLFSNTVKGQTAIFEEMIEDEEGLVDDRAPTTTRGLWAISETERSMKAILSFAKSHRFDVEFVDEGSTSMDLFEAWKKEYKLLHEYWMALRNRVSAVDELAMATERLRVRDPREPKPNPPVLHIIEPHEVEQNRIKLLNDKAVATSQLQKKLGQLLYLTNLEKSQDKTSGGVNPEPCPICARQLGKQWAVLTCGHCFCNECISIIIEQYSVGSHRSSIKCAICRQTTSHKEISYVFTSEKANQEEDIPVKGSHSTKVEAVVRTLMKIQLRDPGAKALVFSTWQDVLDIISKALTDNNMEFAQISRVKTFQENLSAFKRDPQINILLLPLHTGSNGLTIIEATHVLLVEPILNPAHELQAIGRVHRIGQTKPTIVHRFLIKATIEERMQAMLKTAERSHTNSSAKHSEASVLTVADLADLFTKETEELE

## CNC(=O)c1ccccc1Sc1ccc2c(/C=C/c3ccccn3)n[nH]c2c1 [axitinib, N-Methyl-2-[[3-[(E)-2-pyridin-2-ylethenyl]-1H-indazol-6-yl]sulfanyl]benzamide]
Wnt/β-catenin signaling
  TOPFlash activity normalized to Renilla luciferase activity: dose dependently inhibits
GFP-SHPRH
  Kd: 10.4 ± 3.3 µM
SW480 cells
  cells with unequal EdU labelling (EdU ACD): around 15%
RKO cells
  EdU ACD: pre-treatment with 6B10 was required for EdU ACD induction
MED23
  direct binding in intact living cells: confirmed
